Source: US20110038885A1, “CHEMOKINE ANALOGS” (priority 2007, published 2011)
Bridge positions count the residues as written; N and C are the ends. Square brackets hold non-standard residues; d marks the D form. Peptide text beside a SMILES is read from it. * marks the point of attachment. d(pGlu) = O=C1CC[C@H](C(=O)O)N1; Lauroyl = CCCCCCCCCCCC(=O)*; Ac6c = NC1(C(=O)O)CCCCC1; Octanoyl = CCCCCCCC(=O)*; Dap = NC[C@H](N)C(=O)O; AEEA = NCCOCCOCC(=O)O; X2 = CCCCCCO*

How the values were obtained:
MCP-1 = experiment: In vitro chemotaxis (trans-well migration) v MCP-1; type: cell-based, human
Method in brief: (§1)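 Human THP-1 monocytes (10^4-10^6) with agent at varying concentrations in upper trans-well chamber; IL-8 or MCP-1 in lower chamber at a migration-inducing concentration, 37° C for e.g. 4 hours. Migrated cells quantified by MTT (595 nm) against a THP-1 standard curve; cytotoxicity and non-chemokine chemoattractant controls run.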

IL-8 = experiment: In vitro chemotaxis, inhibition v IL-8; type: cell-based, human; set-up: concentration or dose not given beside the values
Method in brief: as §1

| SMILES | EC50 (MCP-1) [nM] | T ½ rat in vivo (Half-life in rat in vivo) [min] | half-life (Half-life in rat in vivo; read-out: T ½ rat in vivo) [min] | v IL-8 inhibition (%) (IL-8) |
| --- | --- | --- | --- | --- |
| CCCCCCCC(=O)NCCCC[C@H](NC(=O)[C@@H](CC(=O)O)NC(=O)[C@H]1CSSC[C@@H](N)C(=O)N[C@H](CCC(N)=O)C(=O)N[C@H]([C@H](C)CC)C(=O)N[C@H](Cc2c[nH]c3ccccc23)C(=O)N[C@H](CCCCN)C(=O)N[C@H](CCC(N)=O)C(=O)N[C@H](CCCCN)C(=O)N2CCC[C@@H]2C(=O)N[C@H](CC(=O)O)C(=O)N[C@H](CC(C)C)C(=O)N1)C(=O)O [Example 147, c(D-Cys-D-Gln-D-Ile-D-Trp-D-Lys-D-Gln-D-Lys-D-Pro-D-Asp-D-Leu-D-Cys)-D-Asp-Lys(Nε-octanoyl)-OH] (H-[dC][dQ][dI][dW][dK][dQ][dK][dP][dD][dL][dC][dD]K(Octanoyl)-OH; disulfide 1-11) | 500 |  |  | 29.0 |
| CCCCCCCC(=O)NCCCC[C@H](NC(=O)COCCOCCNC(=O)[C@H]1CSSC[C@@H](N)C(=O)N[C@H](CCC(N)=O)C(=O)N[C@H]([C@H](C)CC)C(=O)N[C@H](Cc2c[nH]c3ccccc23)C(=O)N[C@H](CCCCN)C(=O)N[C@H](CCC(N)=O)C(=O)N[C@H](CCCCN)C(=O)N2CCC[C@@H]2C(=O)N[C@H](CC(=O)O)C(=O)N[C@H](CC(C)C)C(=O)N1)C(=O)O [Example 151, c(D-Cys-D-Gln-D-Ile-D-Trp-D-Lys-D-Gln-D-Lys-D-Pro-D-Asp-D-Leu-D-Cys)-Doc-Lys(Nε-octanoyl)-OH] (H-[dC][dQ][dI][dW][dK][dQ][dK][dP][dD][dL][dC][AEEA]K(Octanoyl)-OH; disulfide 1-11) | 28 |  |  | 103.7 |
| CCCCCCCC(=O)NCCCC[C@@H]1NC(=O)[C@@H](CC(=O)O)NC(=O)[C@H]2CCCN2C(=O)[C@@H](CCCCN)NC(=O)[C@@H](CCC(N)=O)NC(=O)[C@@H](CCCCN)NC(=O)[C@@H](Cc2c[nH]c3ccccc23)NC(=O)[C@@H]([C@H](C)CC)NC(=O)[C@@H](CCC(N)=O)NC(=O)[C@H](N)CSSC[C@H](C(=O)O)NC(=O)[C@@H](CC(C)C)NC1=O [Example 154, c(D-Cys-D-Gln-D-Ile-D-Trp-D-Lys-D-Gln-D-Lys-D-Pro-D-Asp-Lys(Nε-octanoyl)-D-Leu-D-Cys)-OH] (H-[dC][dQ][dI][dW][dK][dQ][dK][dP][dD]K(Octanoyl)[dL][dC]-OH; disulfide 1-12) | > 1000 |  |  | 9.8 |
| CC(=O)N[C@H]1CSSC[C@@H](C(N)=O)NC(=O)[C@H](CCC(N)=O)NC(=O)[C@H](Cc2c[nH]c3ccccc23)NC(=O)[C@H](CCCCN)NC(=O)[C@H](CCC(N)=O)NC(=O)[C@H](CCCCN)NC(=O)[C@@H]2CCCN2C(=O)[C@H](CC(=O)O)NC(=O)C2(CCCCC2)NC1=O [Example 156, Ac-c(Cys-A6c-Asp-Pro-Lys-Gln-Lys-Trp-Gln-Cys)-NH2] (Ac-C[Ac6c]DPKQKWQC-NH2; disulfide 1-10) | > 1000 |  |  | 3.1 |
| CC[C@H](C)[C@@H]1NC(=O)[C@H](Cc2c[nH]c3ccccc23)NC(=O)[C@H](CCCCN)NC(=O)[C@H](CCC(N)=O)NC(=O)[C@H](CCCCN)NC(=O)[C@@H](NC(C)=O)CSSC[C@@H](C(=O)N2CCC[C@@H]2C(=O)N[C@H](CC(=O)O)C(=O)N[C@H](CC(C)C)C(N)=O)NC(=O)[C@H](CCC(N)=O)NC1=O [Example 157, Ac-c(Cys-Lys-Gln-Lys-Trp-Ile-Gln-Cys)-D-Pro-D-Asp-D-Leu-NH2] (Ac-CKQKWIQC[dP][dD][dL]-NH2; disulfide 1-8) | > 1000 |  |  | −15 |
| CCCCCCCC(=O)N[C@@H](CN)C(=O)N[C@@H]1CSSC[C@H](C(N)=O)NC(=O)[C@@H](CC(C)C)NC(=O)[C@@H](CC(=O)O)NC(=O)[C@H]2CCCN2C(=O)[C@@H](CCCCN)NC(=O)[C@@H](CCC(N)=O)NC(=O)[C@@H](CCCCN)NC(=O)[C@@H](Cc2c[nH]c3ccccc23)NC(=O)[C@@H]([C@H](C)CC)NC(=O)[C@@H](CCC(N)=O)NC1=O [Example 160, Octanoyl-Dap-c(D-Cys-D-Gln-D-Ile-D-Trp-D-Lys-D-Gln-D-Lys-D-Pro-D-Asp-D-Leu-D-Cys)-NH2] (Octanoyl-[Dap][dC][dQ][dI][dW][dK][dQ][dK][dP][dD][dL][dC]-NH2; disulfide 2-12) | 25 |  |  | 100.2 |
| CCCCCCOC(=O)C[C@H]1NC(=O)[C@H]2CCCN2C(=O)[C@@H](CCCCN)NC(=O)[C@@H](CCC(N)=O)NC(=O)[C@@H](CCCCN)NC(=O)[C@@H](Cc2c[nH]c3ccccc23)NC(=O)[C@@H]([C@H](C)CC)NC(=O)[C@@H](CCC(N)=O)NC(=O)[C@H](N)CSSC[C@H](C(N)=O)NC(=O)[C@@H](CC(C)C)NC1=O [Example 161, c(D-Cys-D-Gln-D-Ile-D-Trp-D-Lys-D-Gln-D-Lys-D-Pro-D-Asp(1-hexanol)-D-Leu-D-Cys)-NH2] (H-[dC][dQ][dI][dW][dK][dQ][dK][dP][dD](X2)[dL][dC]-NH2; disulfide 1-11) | 8 |  |  | 99.8 |
| CC[C@H](C)[C@@H]1NC(=O)[C@H](Cc2c[nH]c3ccccc23)NC(=O)[C@H](CCCCN)NC(=O)[C@H](CCC(N)=O)NC(=O)[C@H](CCCCN)NC(=O)[C@@H]2CCCN2C(=O)[C@H](CC(=O)O)NC(=O)[C@H](CC(C)C)NC(=O)[C@@H](NC(=O)[C@@H](CC(=O)O)NC(=O)[C@H](N)CCCCN)CSSC[C@@H](C(N)=O)NC(=O)[C@H](CCC(N)=O)NC1=O [Example 167, D-Lys-D-Asp-c(Cys-Leu-Asp-Pro-Lys-Gln-Lys-Trp-Ile-Gln-Cys)-NH2] (H-[dK][dD]CLDPKQKWIQC-NH2; disulfide 3-13) | 25 |  |  | 99.6 |

Now from value to molecule, other results behind:

| EC50 (MCP-1) [nM] | T ½ rat in vivo (Half-life in rat in vivo) [min] | half-life (Half-life in rat in vivo; read-out: T ½ rat in vivo) [min] | SMILES | v IL-8 inhibition (%) (IL-8) |
| --- | --- | --- | --- | --- |
| 6 | 23.1 | 19.4 | CC[C@H](C)[C@@H]1NC(=O)[C@H](Cc2c[nH]c3ccccc23)NC(=O)[C@H](CCCCN)NC(=O)[C@@H](NC(=O)[C@H]2CCC(=O)N2)CSSC[C@@H](C(N)=O)NC(=O)[C@H](CCC(N)=O)NC1=O [Example 53, DpGlu-c(Cys-Lys-Trp-Ile-Gln-Cys)-NH2] ([d(pGlu)]CKWIQC-NH2; disulfide 2-7) |  |
| 66 |  |  | CCCCCCCC(=O)NCCCC[C@H](NC(=O)[C@H]1CSSC[C@@H](N)C(=O)N[C@H](CCC(N)=O)C(=O)N[C@H]([C@H](C)CC)C(=O)N[C@H](Cc2c[nH]c3ccccc23)C(=O)N[C@H](CCCCN)C(=O)N[C@H](CCC(N)=O)C(=O)N[C@H](CCCCN)C(=O)N2CCC[C@@H]2C(=O)N[C@H](CC(=O)O)C(=O)N[C@H](CC(C)C)C(=O)N1)C(=O)O [Example 149, c(D-Cys-D-Gln-D-Ile-D-Trp-D-Lys-D-Gln-D-Lys-D-Pro-D-Asp-D-Leu-D-Cys)-Lys(Nε-octanoyl)-OH] (H-[dC][dQ][dI][dW][dK][dQ][dK][dP][dD][dL][dC]K(Octanoyl)-OH; disulfide 1-11) | 106.2 |
| 33 |  |  | CCCCCCCC(=O)NCCCC[C@H](NC(=O)[C@@H](CCC(=O)O)NC(=O)[C@H](NC(=O)[C@H]1CSSC[C@@H](N)C(=O)N[C@H](CCC(N)=O)C(=O)N[C@H]([C@H](C)CC)C(=O)N[C@H](Cc2c[nH]c3ccccc23)C(=O)N[C@H](CCCCN)C(=O)N[C@H](CCC(N)=O)C(=O)N[C@H](CCCCN)C(=O)N2CCC[C@@H]2C(=O)N[C@H](CC(=O)O)C(=O)N[C@H](CC(C)C)C(=O)N1)C(C)C)C(=O)O [Example 150, c(D-Cys-D-Gln-D-Ile-D-Trp-D-Lys-D-Gln-D-Lys-D-Pro-D-Asp-D-Leu-D-Cys)-D-Val-D-Glu-Lys(Nε-octanoyl)-OH] (H-[dC][dQ][dI][dW][dK][dQ][dK][dP][dD][dL][dC][dV][dE]K(Octanoyl)-OH; disulfide 1-11) | 100.5 |
| > 1000 |  |  | CCCCCCCC(=O)NCCCC[C@@H]1NC(=O)[C@@H](CC(C)C)NC(=O)[C@@H](CC(=O)O)NC(=O)[C@H]2CCCN2C(=O)[C@@H](CCCCN)NC(=O)[C@@H](CCC(N)=O)NC(=O)[C@@H](CCCCN)NC(=O)[C@@H](Cc2c[nH]c3ccccc23)NC(=O)[C@@H]([C@H](C)CC)NC(=O)[C@@H](CCC(N)=O)NC(=O)[C@H](N)CSSC[C@H](C(N)=O)NC1=O [Example 153, c(D-Cys-D-Gln-D-Ile-D-Trp-D-Lys-D-Gln-D-Lys-D-Pro-D-Asp-D-Leu-Lys(Nε-octanoyl)-D-Cys)-NH2] (H-[dC][dQ][dI][dW][dK][dQ][dK][dP][dD][dL]K(Octanoyl)[dC]-NH2; disulfide 1-12) | 4.1 |
| > 1000 |  |  | CC(=O)N[C@H]1CSSC[C@@H](C(N)=O)NC(=O)[C@H](CCC(N)=O)NC(=O)C2(CCCCC2)NC(=O)[C@H](Cc2c[nH]c3ccccc23)NC(=O)[C@H](CCCCN)NC(=O)[C@H](CCC(N)=O)NC(=O)[C@H](CCCCN)NC(=O)[C@@H]2CCCN2C(=O)[C@H](CC(=O)O)NC(=O)[C@H](CC(C)C)NC1=O [Example 155, Ac-c(Cys-Leu-Asp-Pro-Lys-Gln-Lys-Trp-A6c-Gln-Cys)-NH2] (Ac-CLDPKQKW[Ac6c]QC-NH2; disulfide 1-11) | −1.5 |
| > 1000 |  |  | CC[C@H](C)[C@@H]1NC(=O)[C@H](Cc2c[nH]c3ccccc23)NC(=O)[C@H](CCCCN)NC(=O)[C@H](CCC(N)=O)NC(=O)[C@H](CCCCN)NC(=O)[C@@H]2CCCN2C(=O)[C@@H](NC(C)=O)CSSC[C@@H](C(=O)N[C@H](CC(=O)O)C(=O)N[C@H](CC(C)C)C(N)=O)NC(=O)[C@H](CCC(N)=O)NC1=O [Example 158, Ac-c(Cys-Pro-Lys-Gln-Lys-Trp-Ile-Gln-Cys)-D-Asp-D-Leu-NH2] (Ac-CPKQKWIQC[dD][dL]-NH2; disulfide 1-9) | −17.9 |
| > 1000 |  |  | CCCCCCCCCCCC(=O)NCCCC[C@H](N)C(=O)N[C@H](C(=O)N[C@H]1CSSC[C@@H](C(N)=O)NC(=O)[C@H](CCC(N)=O)NC(=O)[C@H]([C@@H](C)CC)NC(=O)[C@H](Cc2c[nH]c3ccccc23)NC(=O)[C@H](CCCCN)NC(=O)[C@H](CCC(N)=O)NC(=O)[C@H](CCCCN)NC(=O)[C@@H]2CCCN2C(=O)[C@H](CC(=O)O)NC(=O)[C@H](CC(C)C)NC1=O)[C@@H](C)CC [Example 169, Lys(Nε-dodecanoyl)-Ile-c(Cys-Leu-Asp-Pro-Lys-Gln-Lys-Trp-Ile-Gln-Cys)-NH2] (H-K(Lauroyl)ICLDPKQKWIQC-NH2; disulfide 3-13) | 7.7 |
